Experimental data: ChEMBL document CHEMBL2074433, “Specificity of doxorubicin versus rhodamine-123 in assessing P-glycoprotein functionality in the LLC-PK1, LLC-PK1:MDR1 and Caco-2 cell lines” (Eur J Pharm Sci, 2000)

Molecular target: ATP-dependent translocase ABCB1 (Homo sapiens, UniProt P08183)
Test: TP_TRANSPORTER: inhibition of Doxorubicin transepithelial transport (basal to apical) (Doxorubicin: 3 uM, Quinidine: 50 uM) in MDR1-expressing LLC-PK1 cells
Assay type: functional, cell-based
Conditions: pig, llc-pk1, 50 µM

ATP-dependent translocase ABCB1, sequence (P08183 whole entry): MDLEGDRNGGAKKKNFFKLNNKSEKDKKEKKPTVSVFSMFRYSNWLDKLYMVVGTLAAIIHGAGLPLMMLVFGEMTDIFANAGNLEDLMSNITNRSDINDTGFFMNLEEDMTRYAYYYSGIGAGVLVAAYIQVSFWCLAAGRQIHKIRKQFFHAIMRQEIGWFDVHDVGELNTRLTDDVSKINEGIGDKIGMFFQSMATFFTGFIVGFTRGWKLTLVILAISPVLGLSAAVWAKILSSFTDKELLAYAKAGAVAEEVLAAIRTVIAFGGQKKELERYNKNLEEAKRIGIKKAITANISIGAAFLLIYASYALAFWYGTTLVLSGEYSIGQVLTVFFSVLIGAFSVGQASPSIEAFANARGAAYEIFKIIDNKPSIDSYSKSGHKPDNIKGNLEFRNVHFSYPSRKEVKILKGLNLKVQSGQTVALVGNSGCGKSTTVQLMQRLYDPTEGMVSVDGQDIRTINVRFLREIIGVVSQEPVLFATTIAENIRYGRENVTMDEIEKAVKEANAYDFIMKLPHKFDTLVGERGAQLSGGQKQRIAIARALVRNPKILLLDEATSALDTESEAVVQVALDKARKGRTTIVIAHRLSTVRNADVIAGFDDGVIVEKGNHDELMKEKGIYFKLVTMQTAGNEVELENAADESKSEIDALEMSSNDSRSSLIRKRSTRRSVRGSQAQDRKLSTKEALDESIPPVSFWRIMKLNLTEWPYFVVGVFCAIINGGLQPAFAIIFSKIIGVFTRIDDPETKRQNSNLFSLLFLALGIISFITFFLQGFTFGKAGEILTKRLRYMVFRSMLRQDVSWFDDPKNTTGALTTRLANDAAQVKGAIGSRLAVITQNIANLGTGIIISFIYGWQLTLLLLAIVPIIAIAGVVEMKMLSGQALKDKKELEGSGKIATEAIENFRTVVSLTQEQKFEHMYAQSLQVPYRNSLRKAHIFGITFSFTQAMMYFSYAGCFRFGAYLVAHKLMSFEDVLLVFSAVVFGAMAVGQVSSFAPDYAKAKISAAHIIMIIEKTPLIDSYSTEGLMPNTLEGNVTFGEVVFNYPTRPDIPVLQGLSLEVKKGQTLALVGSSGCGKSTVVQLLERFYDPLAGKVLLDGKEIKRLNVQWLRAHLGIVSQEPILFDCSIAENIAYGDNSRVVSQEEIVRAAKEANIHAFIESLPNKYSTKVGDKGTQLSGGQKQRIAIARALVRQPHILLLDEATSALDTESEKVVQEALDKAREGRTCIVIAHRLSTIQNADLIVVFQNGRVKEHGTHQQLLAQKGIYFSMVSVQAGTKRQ

In the case of `C=C[C@H]1C[N@@]2CC[C@H]1C[C@H]2[C@H](O)c1ccnc2ccc(OC)cc12` [QUININE], the Activity is reported as “is not an inhibitor [-]”.
